Assays:
NCI-H146 = experiment: Anticancer activity against human NCI-H146 cells; type: functional, cell-based
DMS-114 = experiment: Anticancer activity against human DMS-114 cells; type: functional, cell-based
[1] = Metabolic stability in human liver microsomes assessed as parent compound remaining at 0.5 uM after 10 mins; type: ADME, Microsome; conditions: read-out: Stability
[2] = Antitumour activity against human LG0787F cells xenografted in NSG mouse assessed as tumour growth inhibition at 1 mg/kg/day, po bid; type: functional; conditions: read-out: TGI
NCI-H441 = experiment: Anticancer activity against human NCI-H441 cells; type: functional, cell-based
[3] = Antitumour activity against patient-derived human PAT121 cells xenografted in mouse model at 1.6 mg/kg, po bid, 5 days on and 2 days off for 2 weeks; type: functional; conditions: PAT121, 120 h, time 5 day, read-out: TGI
A549 = experiment: Anticancer activity against human A549 cells; type: functional, cell-based
[4] = Antitumour activity against patient-derived human LG0787F cells xenografted in mouse model at 1.6 mg/kg, po bid, 5 days on and 2 days off for 2 weeks; type: functional; conditions: 120 h, time 5 day, read-out: TGI
[5] = AUC (0 to 7 hrs) in mouse at 30 mg/kg, po; type: ADME, organism-based; design: time < 7 hr, dose 30 mg/kg, route po; conditions: in vivo
[6] = Antitumour activity against patient-derived human PAT149 cells xenografted in mouse model at 1.6 mg/kg, po bid, 5 days on and 2 days off for 2 weeks; type: functional; conditions: PAT149, 120 h, time 5 day, read-out: TGI
[7] = molecular target: T1, Voltage-gated inwardly rectifying potassium channel KCNH2 (Homo sapiens, UniProt Q12809); experiment: Inhibition of human ERG by patch-clamp assay
NCI-H1355 = experiment: Anticancer activity against human NCI-H1355 cells; type: functional, cell-based
[8] = Oral bioavailability in dog at 5 mg/kg; type: ADME, organism-based, Canis lupus familiaris; conditions: in vivo
[9] = AUC in human LG0787F cells xenografted in NSG mouse at 1 mg/kg/day, po bid; type: ADME, organism-based; design: dose 1 mg/kg/day, route po; conditions: in vivo
[10] = Drug concentration at steady state in human LG0787F cells xenografted in NSG mouse at 1 mg/kg/day infused continuously over 6 days using Alzet pump; type: ADME, organism-based; conditions: in vivo, 144 h, time 6 day
[11] = Inhibition of c-MYC expression in human JJN3R cells measured after 4 hrs; type: functional, cell-based; conditions: JJN-3R
HCC95 = experiment: Anticancer activity against human HCC95 cells; type: functional, cell-based
[12] = Anticancer activity against human HCC1588 cells; type: functional, cell-based
[13] = Antitumour activity against human LG0787F cells xenografted in po dosed NSG mouse assessed as minimum effective concentration; type: functional; conditions: dose 0.25 mg/kg/day
[14] = Antitumour activity against human LG0787F cells xenografted in NSG mouse assessed as tumour growth inhibition at 0.5 mg/kg/day infused continuously over 6 days using Alzet pump; type: functional; conditions: 144 h, time 6 day, read-out: TGI
SK-MES-1 = experiment: Anticancer activity against human SK-MES-1 cells; type: functional, cell-based
[15] = Oral bioavailability in rat at 5 mg/kg; type: ADME, organism-based; conditions: in vivo
[16] = Antitumour activity against human LG0787F cells xenografted in NSG mouse assessed as tumour growth inhibition at 0.25 mg/kg/day, po bid; type: functional; conditions: read-out: TGI
[17] = Antitumour activity against patient-derived human PAT129 cells xenografted in mouse model at 1.6 mg/kg, po bid, 5 days on and 2 days off for 2 weeks; type: functional; conditions: PAT129, 120 h, time 5 day, read-out: TGI
NCI-H2228 = experiment: Anticancer activity against human […] cells; type: functional, cell-based
[18] = Antitumour activity against patient-derived human PAT136 cells xenografted in mouse model at 1.6 mg/kg, po bid, 5 days on and 2 days off for 2 weeks; type: functional; conditions: PAT136, 120 h, time 5 day, read-out: TGI
[19] = Antitumour activity against patient-derived human PAT014 cells xenografted in mouse model at 1.6 mg/kg, po bid, 5 days on and 2 days off for 2 weeks; type: functional; conditions: PAT014, 120 h, time 5 day, read-out: TGI
NCI-H1623 = experiment: Anticancer activity against human NCI-H1623 cells; type: functional, cell-based
[20] = Antitumour activity against human LG0787F cells xenografted in po dosed NSG mouse assessed as minimum effective concentration measured after 12 hrs; type: functional; conditions: dose 0.25 mg/kg/day
[21] = Antitumour activity against patient-derived human PAT140 cells xenografted in mouse model at 1.6 mg/kg, po bid, 5 days on and 2 days off for 2 weeks; type: functional; conditions: PAT140, 120 h, time 5 day, read-out: TGI
[22] = Antitumour activity against human LG0787F cells xenografted in NSG mouse at 1 mg/kg/day infused continuously over 6 days using Alzet pump; type: functional; conditions: 144 h, time 6 day, read-out: TGI
NCI-H647 = experiment: Anticancer activity against human NCI-H647 cells; type: functional, cell-based
[23] = Total plasma clearance in monkey at 0.1 mg/kg, iv; type: ADME, organism-based, Macaca mulatta; conditions: rhesus monkey
[24] = Antitumour activity against human LG0787F cells xenografted in NSG mouse assessed as tumour growth inhibition at 1 mg/kg/day, po qd; type: functional; conditions: read-out: TGI
[25] = Elimination half life in rat at 1 mg/kg, iv; type: ADME, organism-based; conditions: in vivo, read-out: beta t1/2 (converted)
[26] = Antitumour activity against patient-derived human BR0851F cells xenografted in mouse model at 1.6 mg/kg, po bid, 5 days on and 2 days off for 2 weeks; type: functional; conditions: 120 h, time 5 day, read-out: TGI
[27] = Volume of distribution at steady state in dog at 0.1 mg/kg, iv; type: ADME, organism-based, Canis lupus familiaris; conditions: in vivo, read-out: Vdss
Cytochrome P450 2C9 = Cytochrome P450 2C9 (Homo sapiens, UniProt P11712); experiment: Inhibition of CYP2C9 (unknown origin); type: ADME
[28] = Cmax in human LG0787F cells xenografted in NSG mouse at 1 mg/kg/day, po qd; type: ADME, organism-based; design: dose 1 mg/kg/day, route po; conditions: in vivo
[29] = Antitumour activity against patient-derived human PAT78 cells xenografted in mouse model at 1.6 mg/kg, po bid, 5 days on and 2 days off for 2 weeks; type: functional; conditions: PAT78, 120 h, time 5 day, read-out: TGI
[30] = Permeability coefficient across basolateral to apical side in human Caco-2 cells; type: ADME, cell-based; conditions: read-out: permeability
[31] = Antitumour activity against patient-derived human PAT138 cells xenografted in mouse model at 1.6 mg/kg, po bid, 5 days on and 2 days off for 2 weeks; type: functional; conditions: PAT138, 120 h, time 5 day, read-out: TGI
DMS-53 = experiment: Anticancer activity against human DMS-53 cells; type: functional, cell-based
Cytochrome P450 2D6 = Cytochrome P450 2D6 (Homo sapiens, UniProt P10635); experiment: Inhibition of CYP2D6 (unknown origin); type: ADME
Cytochrome P450 1A2 = Cytochrome P450 1A2 (Homo sapiens, UniProt P05177); experiment: Inhibition of CYP1A2 (unknown origin); type: ADME
[32] = Volume of distribution at steady state in monkey at 0.1 mg/kg, iv; type: ADME, organism-based, Macaca mulatta; conditions: rhesus monkey, in vivo, read-out: Vdss
[33] = molecular target: T1, Voltage-gated inwardly rectifying potassium channel KCNH2; experiment: Inhibition of human ERG by flux assay
NCI-H520 = experiment: Anticancer activity against human NCI-H520 cells; type: functional, cell-based
NCI-H1048 = experiment: Anticancer activity against human NCI-H1048 cells; type: functional, cell-based

T1 sequence (Q12809 whole entry): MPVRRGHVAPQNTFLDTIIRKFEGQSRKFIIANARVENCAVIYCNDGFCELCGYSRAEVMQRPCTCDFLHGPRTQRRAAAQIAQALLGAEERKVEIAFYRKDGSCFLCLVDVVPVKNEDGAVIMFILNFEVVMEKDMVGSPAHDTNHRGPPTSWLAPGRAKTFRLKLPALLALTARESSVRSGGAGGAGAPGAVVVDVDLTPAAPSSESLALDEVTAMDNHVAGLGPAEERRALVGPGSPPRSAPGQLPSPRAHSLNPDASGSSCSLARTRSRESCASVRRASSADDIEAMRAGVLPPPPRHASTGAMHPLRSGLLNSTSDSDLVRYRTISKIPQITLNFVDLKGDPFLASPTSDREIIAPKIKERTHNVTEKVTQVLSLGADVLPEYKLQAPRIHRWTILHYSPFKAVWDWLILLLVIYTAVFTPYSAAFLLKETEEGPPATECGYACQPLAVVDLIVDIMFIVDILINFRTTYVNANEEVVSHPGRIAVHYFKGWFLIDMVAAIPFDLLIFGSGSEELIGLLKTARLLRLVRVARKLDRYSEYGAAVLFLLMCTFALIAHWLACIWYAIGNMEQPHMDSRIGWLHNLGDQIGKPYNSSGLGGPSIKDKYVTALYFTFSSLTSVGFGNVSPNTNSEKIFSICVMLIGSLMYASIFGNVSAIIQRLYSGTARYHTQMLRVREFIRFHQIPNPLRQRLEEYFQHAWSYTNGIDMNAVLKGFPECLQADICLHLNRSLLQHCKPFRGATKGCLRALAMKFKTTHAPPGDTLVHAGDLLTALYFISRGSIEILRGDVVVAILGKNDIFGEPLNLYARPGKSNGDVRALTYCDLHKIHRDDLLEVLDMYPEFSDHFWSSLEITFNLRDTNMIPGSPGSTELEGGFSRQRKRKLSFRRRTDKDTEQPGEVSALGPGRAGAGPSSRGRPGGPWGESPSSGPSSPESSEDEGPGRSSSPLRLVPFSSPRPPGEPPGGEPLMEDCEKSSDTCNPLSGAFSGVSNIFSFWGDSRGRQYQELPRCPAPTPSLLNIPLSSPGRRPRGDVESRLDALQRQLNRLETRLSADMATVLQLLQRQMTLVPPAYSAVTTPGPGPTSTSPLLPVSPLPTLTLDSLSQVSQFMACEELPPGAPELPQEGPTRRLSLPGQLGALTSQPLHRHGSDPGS
Cytochrome P450 2C9, sequence (P11712 whole entry): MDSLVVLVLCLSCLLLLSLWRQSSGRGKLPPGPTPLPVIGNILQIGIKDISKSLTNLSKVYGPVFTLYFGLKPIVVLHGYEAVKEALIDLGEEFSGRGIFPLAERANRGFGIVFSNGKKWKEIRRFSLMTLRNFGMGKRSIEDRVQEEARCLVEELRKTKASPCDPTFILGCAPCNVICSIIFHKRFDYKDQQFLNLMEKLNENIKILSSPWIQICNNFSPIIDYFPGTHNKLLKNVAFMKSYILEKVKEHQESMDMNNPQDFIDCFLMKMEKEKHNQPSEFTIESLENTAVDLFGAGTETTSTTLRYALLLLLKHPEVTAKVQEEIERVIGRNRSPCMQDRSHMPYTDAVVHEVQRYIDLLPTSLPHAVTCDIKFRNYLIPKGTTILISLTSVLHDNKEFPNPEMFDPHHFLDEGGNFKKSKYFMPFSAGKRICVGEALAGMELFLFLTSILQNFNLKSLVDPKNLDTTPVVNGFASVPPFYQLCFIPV
Cytochrome P450 2D6, sequence (P10635 whole entry): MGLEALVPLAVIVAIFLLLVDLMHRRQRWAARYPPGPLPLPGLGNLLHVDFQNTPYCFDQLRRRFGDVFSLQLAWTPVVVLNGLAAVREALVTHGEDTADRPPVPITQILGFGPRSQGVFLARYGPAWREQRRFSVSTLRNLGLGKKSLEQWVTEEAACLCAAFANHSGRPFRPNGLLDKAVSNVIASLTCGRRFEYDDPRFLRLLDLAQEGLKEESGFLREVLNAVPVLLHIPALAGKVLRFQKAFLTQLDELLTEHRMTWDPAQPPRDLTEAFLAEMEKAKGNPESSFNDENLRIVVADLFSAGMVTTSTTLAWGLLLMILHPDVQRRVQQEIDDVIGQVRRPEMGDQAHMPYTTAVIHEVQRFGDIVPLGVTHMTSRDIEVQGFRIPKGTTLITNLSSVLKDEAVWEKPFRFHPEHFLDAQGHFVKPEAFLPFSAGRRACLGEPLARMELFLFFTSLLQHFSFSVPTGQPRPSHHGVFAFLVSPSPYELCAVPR
Cytochrome P450 1A2, sequence (P05177 whole entry): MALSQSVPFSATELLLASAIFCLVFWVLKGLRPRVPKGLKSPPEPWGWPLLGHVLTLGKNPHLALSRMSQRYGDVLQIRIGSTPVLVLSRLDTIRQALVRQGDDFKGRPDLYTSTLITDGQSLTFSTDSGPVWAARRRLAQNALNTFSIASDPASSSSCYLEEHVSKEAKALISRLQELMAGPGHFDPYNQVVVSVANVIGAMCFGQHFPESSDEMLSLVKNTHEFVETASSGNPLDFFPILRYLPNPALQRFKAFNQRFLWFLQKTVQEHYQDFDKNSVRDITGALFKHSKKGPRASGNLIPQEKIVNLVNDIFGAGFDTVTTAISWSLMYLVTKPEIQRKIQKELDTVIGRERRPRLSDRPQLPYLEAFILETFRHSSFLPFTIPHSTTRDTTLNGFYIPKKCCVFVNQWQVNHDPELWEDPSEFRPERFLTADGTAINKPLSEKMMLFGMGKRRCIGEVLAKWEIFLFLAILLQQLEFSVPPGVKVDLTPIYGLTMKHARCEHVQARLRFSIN

Cc1nnn(C)c1-c1cnc2c3ccc(C(C)(C)O)cc3n([C@H](c3ccccc3)C3CCOCC3)c2c1 [EZOBRESIB] gave an IC50 (NCI-H146) of 0.41 nM, an IC50 (DMS-114) of 0.32 nM and a remaining at 10 min, 0.5 µM [1] of 82%. For the same compound, the inhibition in vivo at 1 mg/kg/day [2] was 70%, the IC50 (NCI-H441) was 118 nM and the inhibition in vivo at 1.6 mg/kg [3] was 85%. For the same compound, the IC50 (A549) was greater than 500 nM, the inhibition in vivo at 1.6 mg/kg [4] was 110% and the AUC(0-t) at 7 h [5] was 49.6 µM·h. It also gave an inhibition in vivo at 1.6 mg/kg [6] of 101%, an IC50 [7] of 28000 nM and an IC50 (NCI-H1355) greater than 500 nM. It also gave a bioavailability [8] of 59%, an AUC [9] of 0.47 µM·h and a Css [10] of 17 nM. It also gave an IC50 [11] of 0.7 nM, an IC50 (HCC95) of 8.1 nM and an IC50 [12] greater than 500 nM. It also gave an MEC [13] of 0.03 µM, an inhibition in vivo at 0.5 mg/kg/day [14] of 62% and an IC50 (SK-MES-1) greater than 500 nM. It also gave a bioavailability [15] of 47%, an inhibition in vivo at 0.25 mg/kg/day [16] of 46% and an inhibition in vivo at 1.6 mg/kg [17] of 65%. The IC50 (NCI-H2228) was 166 nM, the inhibition in vivo at 1.6 mg/kg [18] was 92% and the inhibition in vivo at 1.6 mg/kg [19] was 70%. The IC50 (NCI-H1623) was greater than 500 nM, the MEC [20] was 10 nM and the inhibition in vivo at 1.6 mg/kg [21] was 59%. The inhibition in vivo at 1 mg/kg/day [22] was 78%, the IC50 (NCI-H647) was 441 nM and the clearance [23] was 32 mL/min/kg. For the same compound, the inhibition in vivo at 1 mg/kg/day [24] was 50%, the half-life [25] was 4.2 h and the inhibition in vivo at 1.6 mg/kg [26] was 49%. For the same compound, the Vd [27] was 5.3 L/kg, the IC50 (Cytochrome P450 2C9) was 11800 nM and the Cmax [28] was 150 nM. It also gave an inhibition in vivo at 1.6 mg/kg [29] of 47%, a Papp B→A [30] of 34.7 ×10⁻⁶ cm/s and an inhibition in vivo at 1.6 mg/kg [31] of 75%. It also gave an IC50 (DMS-53) of 0.29 nM, an IC50 (Cytochrome P450 2D6) greater than 20000 nM and an IC50 (Cytochrome P450 1A2) greater than 20000 nM. For the same compound, the Vd [32] was 4.2 L/kg, the IC50 [33] was greater than 80000 nM and the IC50 (NCI-H520) was greater than 500 nM. It also gave an IC50 (NCI-H1048) greater than 500 nM.

Reference: ChEMBL document CHEMBL5053512, “Discovery and Preclinical Pharmacology of an Oral Bromodomain and Extra-Terminal (BET) Inhibitor Using Scaffold-Hopping and Structure-Guided Drug Design” (J Med Chem, 2021)
